Data on seven molecules can be found in article PMC4502317, “Two helices in the third intracellular loop determine anoctamin 1 (TMEM16A) activation by calcium” (Pflugers Archiv, 2014).

Where no end group is shown, it is not given here. The star is where a group is joined. Biotin = O=C1N[C@H]2[C@H](CS[C@H]2CCCCC(=O)*)N1

Data set [1] can be described thus: Circular dichroism spectroscopy of reference helix peptides. In kind it is physicochemical. The procedure: To confirm whether the reference helix of ANO1 forms an α-helix, circular dichroism spectroscopy was performed with synthetic peptides spanning the reference helix regions of ANO1 (652-LFEIGIPKMKKFIRYLKL-669) and ANO2 (604-IFEIGVPKLKKLFRKLKD-621).
Background: Circular dichroism is the unequal absorption of left and right circularly polarised light.

The subject of data set [2] is biotinylated Ca^2+ sensor helix peptide of ANO1 (692-NLEPFAGLTPEYMEM-706). The data set can be described thus: Surface plasmon resonance, binding to immobilized Ca^2+ sensor helix peptide. On the set-up: species or system mouse. As for the experimental part:
According to the gating hypothesis, physical binding of the two helices and the interference of Ca^2+ in this interaction are key determinants for gating ANO1. To investigate this relationship, physical interaction between the two helices was measured using surface plasmon resonance. A peptide segment (692-NLEPFAGLTPEYMEM-706) spanning the Ca^2+ sensor helix of ANO1 was synthesized, biotinylated at the N-terminus, and immobilized on a streptavidin-coated gold sensor chip. Subsequently, a synthetic peptide spanning the reference helix (651-[…]-671) was passed over the immobilized Ca^2+ sensor helix.
A Biacore 3000 was used for kinetic surface plasmon resonance measurement as previously described. Briefly, a biotinylated peptide (692-NLEPFAGLTPEYMEM-706) was immobilized on a SA chip or custom streptavidin-coated CM5 sensor chip (GE Healthcare), with one flow cell with biotin alone as a reference cell. For the binding assay, HEPES-buffered saline containing 0.005 % of Tween 20 was used as a running buffer. Various concentrations of the reference helix peptide (aa 651–671) were injected for 120 s and dissociated for 240 s at a flow rate of 20 μL/min. Binding curves were analyzed using BIAevaluation 3.1.

The test system of data set [3] is ANO1. Put plainly: Inhibition of Eact-activated ANO1 currents by helix peptides, inside-out patches. In kind it is cell-based, mouse. The note with it: n = 5. As for the experimental part: Fig. 6 Eact, a synthetic agonist of ANO1 acts on the ICL3 region. a Example traces depicting activation by Eact of WT ANO1 (upper left), 444-EEEEE-448 (Δ5E, upper right), ΔICL3 (lower left), and 659-QMQQFIAYLQ-668 mutant (lower right). b Example traces of Eact-induced ANO1 currents, which were blocked by bath application of the reference helix peptide (Ref helix peptide, 651-[…]-671, 4 μM, lower panel) but not by the Ca^2+ sensor helix peptide (CSH peptide, 700-TPEYMEMIIQFGF-712, 10 μM, middle panel). To test the effects of peptide, 1 μM Eact was applied three times. At the second Eact challenge, each peptide was also applied. c A summary of the effects of applications of helix peptides on Eact-induced ANO1 currents. Current amplitudes were normalized to the current amplitude obtained after of the first Eact challenge. Reference helix peptide (black square, n = 5), its Ala-mutant peptide (black inverted triangle, n = 5), Ca^2+ sensor helix peptide (black triangle, n = 5), or vehicle (white circle, n = 14) was applied at the second Eact challenge. *p < 0.05 compared to the relative response of vehicle application, one-way ANOVA followed by Newman-Keuls post hoc test
We then applied the two helix peptides to see if these peptides compete with Eact in activating ANO1.
All mutants were generated from the wild-type construct, mouse ANO1 (pEGFP-N1-mANO1). […]
(§1) Borosilicate glass pipettes (World Precision Instruments, Sarasota, FL) with tip resistances of ~2 Mohms were used to form gigaseals on HEK cells. […] Currents were recorded with a patch-clamp amplifier (Axopatch 200B, […]) with a 1-KHz filter. […]
(§2) The control pipette solution contained 140 mM N-methyl D-glucamine, 2 mM MgCl2, and 10 mM HEPES adjusted to pH 7.2 with HCl. […] The bath solution contained (in mM) 140 N-methyl D-glucamine, 2 MgCl2, 10 HEPES, 10 chelator (EGTA, N(2-hydroxyethyl) ethylenediamine triacetic acid (HEDTA), or nitrilotriacetic acid (NTA)), and a calculated amount of CaCl2 (adjusted with HCl to pH 7.2). […] Free Ca^2+ less than 30 μM in each solution was monitored with Fura-2 fluorometry.

Data set [4] deals with ANO1. The data set can be described thus: Block of Ca^2+-induced ANO1 currents by helix peptides, inside-out patches. In kind it is cell-based, mouse. The note with it: 3 μM Ca^2+, E h = +80 mV. The procedure:
Fig. 4 The reference helix of the ICL3 region interacts with the Ca^2+ sensor helix in a Ca^2+-dependent way. a, b Physical interaction between the reference and Ca^2+ sensor helices was assessed with a surface plasmon resonance assay. Biotinylated Ca^2+ sensor helix peptide (692-NLEPFAGLTPEYMEM-706) was immobilized on a streptavidin-coated gold sensor chip. Resonance intensities were measured after solutions containing 0, 0.4, and 2.0 mM Ca^2+ and various concentrations of reference helix peptide (651-[…]-671) (a) or its Ala-substituted mutants (651-[…]-671) (b) were flowed through the gold chip. […] Ca^2+ (3 μM) was applied three times to inside-out patches of ANO1-transfected HEK cells. At the second Ca^2+ challenge, the peptides were also given. […] Current amplitudes were normalized to the current amplitude obtained after of the first Ca^2+ challenge. At the second Ca^2+ challenge, reference helix peptide (black circle, **p < 0.01 compared to the relative response of vehicle application, one-way ANOVA, Newman-Keuls post hoc test, n = 13), Ala-replaced reference helix peptide (black inverted triangle, n = 8), the Ca^2+ sensor helix peptide (700-TPEYMEMIIQFGF-712) (black square, **p < 0.01 compared to the relative response of vehicle application, one-way ANOVA, Newman-Keuls post hoc test, n = 7), and vehicle (white circle, n = 8) were also applied […]
as §1, §2

Data set [5] relates to ANO1 285-AGAYAGA-291 mutant. The data set can be described thus: Eact activation of ANO1 EF-hand-like region mutant. The note with it: data not shown. In kind it is cell-based, mouse. As for the experimental part:
(§3) Eact, a synthetic agonist of ANO1, was synthesized for the purpose of treating cystic fibrosis in an attempt to bypass dysfunctioning CFTR channel. Even though Eact was known to activate ANO1, the activation mechanism is not known. We therefore hypothesized that Eact also acts on the ICL3 region.
(§4) All mutants were generated from the wild-type construct, mouse ANO1 (pEGFP-N1-mANO1). Amino acid substitution or deletion mutants were prepared using a site-directed mutagenesis kit (Muta-direct, iNtRON Biotech) or by using the overlap PCR method. Mutations in all mutants were confirmed by sequencing whole nucleotide sequences. […]
as §1, §2

In data set [6] the test system is ΔICL3, the deletion mutant of ANO1 in the ICL3 region. The data set can be described thus: Eact activation of ΔICL3 ANO1 mutant. Type of data set: cell-based, mouse. The procedure: as §3, §4, §1, §2
In data set [7] the test system is ANO1 659-QMQQFIAYLQ-668 mutant. Put plainly: Eact activation of ANO1 reference helix mutant. Type of data set: cell-based, mouse. As for the experimental part:
as §3, §4, §1, §2

Another data set deals with ANO1 QYMQ mutant. The data set can be described thus: Eact activation of ANO1 Ca^2+ sensor helix mutant. Type of data set: cell-based, mouse. The note with it: data not shown. The procedure: as §3, §4, §1, §2
The subject of data set [8] is ANO1. The data set can be described thus: Eact activation of ANO1, inside-out patches. The note with it: 1 μM Eact to bath of inside-out patch. Type of data set: cell-based, mouse. As for the experimental part:
as §3, §4, §1, §2

In another data set the test system is Δ5E ANO1 mutant. The data set can be described thus: Eact activation of Δ5E ANO1 mutant, inside-out patches. In kind it is cell-based, mouse. The note with it: maximal Eact (10 μM). As for the experimental part: as §3, §4, §1, §2
For data set [9], the target named is T1, Ca2+ sensor helix peptide of ANO1 (692-NLEPFAGLTPEYMEM-706), biotinylated (mouse).
T1 construct: Anoctamin 1 (ANO1/TMEM16A), mouse, residues 692-706, Ca2+ sensor helix of the third intracellular loop (ICL3); Held on the streptavidin chip by its N-terminal biotin; also called biotinylated Ca2+ sensor helix peptide; source: synthetic peptide
T1 peptide: Biotin-NLEPFAGLTPEYMEM
Put plainly: SPR; Biacore 3000; biotinylated Ca2+ sensor helix peptide immobilised on an SA chip or custom streptavidin-coated CM5 chip, reference cell with biotin alone; HEPES-buffered saline with 0.005 % Tween 20; various concentrations of reference helix peptide injected for 120 s, dissociation 240 s, 20 uL/min; solutions with 0, 0.4 and 2.0 mM Ca2+ (Ca2+ reduced the interaction dose-dependently). The note with it: both partners purified. For orientation: Surface plasmon resonance follows binding to a sensor surface in real time, without labels.

Turning to 604-IFEIGVPKLKKLFRKLKD-621, the circular dichroism spectrum result in [1] is “typical circular dichroism spectrum of an α-helix with a positive band around 192 nm and negative bands around 208 and 222 nm”.
Consider “651-NLFEIGIPAMAAFIAYLALAA-671 [Ala-mutant reference helix peptide]”, for which, in data set [2] (regardless of Ca^2+ concentration (0, 0.4 and 2.0 mM)), the “interaction with Ca^2+ sensor helix peptide” value was “failed to show any interaction”. In the data set on ANO1 [3] (Ala-substituted peptide with 1 μM Eact), the “effect on Eact-activated ANO1 currents” value is reported as “failed to inhibit”. For the same molecule, the “effect on Ca^2+-induced ANO1 currents” value in the data set on ANO1 [4] (4 μM Ala-mutant peptide, n = 8) is on record as “failed to block”.
For “651-NLFEIGIPKMKKFIRYLKLRR-671 [reference helix peptide]”, the “interaction with Ca^2+ sensor helix peptide” value in [2] (absence of Ca^2+, Biacore 3000, HEPES-buffered saline, 0.005 % Tween 20, 20 μL/min, 120 s injection, 240 s dissociation) is listed as “interacted strongly with the Ca^2+ sensor helix”. Also, the “effect on Eact-activated ANO1 currents” value in the data set on ANO1 [3] (4 μM peptide with 1 μM Eact, p < 0.05 vs vehicle, one-way ANOVA, Newman-Keuls) is on record as “significantly inhibited”. Further, in the data set with ANO1 [4] (4 μM peptide, p < 0.01 vs vehicle, one-way ANOVA, Newman-Keuls, n = 13), the “effect on Ca^2+-induced ANO1 currents” value is on record as “markedly blocked”.
In the case of 652-LFEIGIPKMKKFIRYLKL-669, in data set [1], the circular dichroism spectrum result is “typical circular dichroism spectrum of an α-helix with a positive band around 192 nm and negative bands around 208 and 222 nm”.
Take “700-TPEYMEMIIQFGF-712 [Ca^2+ sensor helix peptide, Ca^2+ sensor helix peptide (700-…-712)]”: in the data set on ANO1 [3] (10 μM peptide with 1 μM Eact), the “effect on Eact-activated ANO1 currents” value was “failed to inhibit”. For the same molecule, the “effect on Ca^2+-induced ANO1 currents” value in the data set with ANO1 [4] (10 μM peptide, p < 0.01 vs vehicle, one-way ANOVA, Newman-Keuls, n = 7) is given as “markedly blocked”.
With `COCCN(C(=O)c1cc(OC)c(OC)c(OC)c1)c1nc(-c2ccccc2)cs1` [Eact], the “activation by Eact” value is on record as “activated 285-AGAYAGA-291 mutant” in data set [5]; “failed to activate” in data set [6]; “failed to activate” in [7]; “failed to activate” with ANO1 QYMQ mutant; “activated the Δ5E ANO1 mutant” in the data set with Δ5E ANO1 mutant. Besides, the “activation of ANO1 by Eact” value in the data set on ANO1 [8] is recorded as “activated ANO1”.
As for NLFEIGIPKMKKFIRYLKLRR (source: synthetic peptide) [reference helix peptide of ANO1 (651-NLFEIGIPKMKKFIRYLKLRR-671)], the binding result in data set [9] is listed as “binds”.
